# Like-named read-outs stand apart in the source and are kept apart here.
# Assays:
# MV-4-11 cells = assay: MV-4-11 cell proliferation inhibition (MTS assay); assay type: cell-based; conditions: Homo sapiens, MV4-11, 168 h, 7 days incubation, MTS, read-out: MV-411 (IC50, Inhibitory Activity of Compounds on MV-4-11 Cell Proliferation)
# Procedure: MV-4-11 cells were cultured in IMDM medium supplemented with 10% fetal bovine serum and collected. The cell concentration was diluted according to a 7-day incubation period, and 180 µL of cell suspension was added to each well of a 96-well plate, resulting in 2,000 cells per well. […] The test compounds were prepared from a 10 mM stock solution and serially diluted in a five-fold gradient, and 20 µL of the diluted compound solution was added to each compound-treated well (final DMSO concentration 0.2%). The cells were incubated in a 37 °C, 5% CO2 incubator for 7 days. After incubation, the reaction solution was prepared according to the MTS assay kit instructions (Promega, G5430), and 20 µL was added to each well. The plate was further incubated at 37 °C with 5% CO2 for 3-4 hours. The absorbance at 490 nm was measured using a microplate reader, and the absorbance at 690 nm was used as the background value. The final raw data were calculated as OD490 - OD690. […] The IC50 values for cell proliferation inhibition were determined using GraphPad Prism 5.0. Each experiment was repeated three times, and three parallel replicates were performed in each experiment to calculate the mean value and standard deviation.
# Table 3. Inhibitory Activity of Compounds on MV-4-11 Cell Proliferation
# Mino cells = assay: Mino cell proliferation inhibition (MTS assay); assay type: cell-based; conditions: Homo sapiens, 72 h, 3 days incubation, read-out: Mino (IC50, Inhibitory Activity of Compounds on Mino Cell Proliferation)
# Procedure: The cell concentration was diluted according to a 3-day incubation period, and 90 µL of cell suspension was added to each well of a 96-well plate, resulting in 8,000 cells per well. […] The test compounds were prepared from a 10 mM stock solution and serially diluted in a five-fold gradient. Similarly, 10 µL of the diluted compound solution was added to each compound-treated well (final DMSO concentration 0.2%).
# The cells were incubated in a 37 °C, 5% CO2 incubator for 3 days. After incubation, the reaction solution was prepared according to the MTS assay kit instructions (Promega, G5430), and 20 µL was added to each well. The plate was further incubated at 37 °C with 5% CO2 for 3-4 hours. The absorbance at 490 nm was measured using a microplate reader, and the absorbance at 690 nm was used as the background value. The final raw data were calculated as OD490 - OD690. […] The IC50 values for cell proliferation inhibition were determined using GraphPad Prism 5.0. Each experiment was repeated three times, and three parallel replicates were performed in each experiment to calculate the mean value and standard deviation.
# Table 2. Inhibitory Activity of Compounds on Mino Cell Proliferation
# MM.1S cells = assay: MM.1S cell proliferation inhibition (MTS assay); assay type: cell-based; conditions: Homo sapiens, MM1.S, 168 h, 7 days incubation, read-out: MM1.S (IC50, Inhibitory Activity of Compounds on MM.1S Cell Proliferation)
# Procedure: The cell concentration was diluted according to a 7-day incubation period, and 180 µL of cell suspension was added to each well of a 96-well plate, with 20,000 cells per well. […] The test compounds were prepared from a 10 mM stock solution and serially diluted in a 5-fold gradient, and 20 µL of the diluted solution was added to each compound-treated well (final DMSO concentration also 0.2%). The cells were incubated in a 37 °C, 5% CO2 incubator for 7 days. After incubation, the reaction solution was prepared according to the MTS assay kit instructions (Promega, G5430), and 20 µL was added to each well. The plate was incubated at 37 °C with 5% CO2 for 3-4 hours. The absorbance at 490 nm was measured using a microplate reader, and the absorbance at 690 nm was used as the background value. […] The IC50 values for cell proliferation inhibition were determined using GraphPad Prism 5.0. Each experiment was repeated three times, and three parallel replicates were performed in each experiment to calculate the mean value and standard deviation.
# Inhibitory Activity of Compounds on MM.1S Cell Proliferation
# CRBN/DDB1 = CRBN/DDB1 (Homo sapiens, UniProt Q96SW2); assay: CRBN/DDB1 binding TR-FRET assay; conditions: read-out: AVE_Inhibition% (1 µM)
# Procedure: • 1. 0.1 µL of the reference solution was added to a 384-well assay plate. The final detection concentration was 100 µM, followed by 3-fold serial dilution for 10 points. • 2. 2.5 µL of CRBN/DDB1 was added to the 384-well plate and centrifuged at 1000 rpm for 1 minute. • 3. 2.5 µL of Thalidomide-BODIPY was added to the plate, centrifuged at 1000 rpm for 1 minute, and incubated at 25 °C for 15 minutes. • 4. 5 µL of His-Tb was added to the plate, centrifuged at 1000 rpm for 1 minute, and incubated at 25 °C for 60 minutes. • 5. The TR-FRET signal was measured using a BMG plate reader with a fluorescence ratio of 520/490 nm.
# Table 4. Inhibition Rate of Compounds on CRBN/DDB1 Binding
# [1] = cited from earlier work
# Chain of CRBN/DDB1 (Q96SW2 whole entry, species assumed): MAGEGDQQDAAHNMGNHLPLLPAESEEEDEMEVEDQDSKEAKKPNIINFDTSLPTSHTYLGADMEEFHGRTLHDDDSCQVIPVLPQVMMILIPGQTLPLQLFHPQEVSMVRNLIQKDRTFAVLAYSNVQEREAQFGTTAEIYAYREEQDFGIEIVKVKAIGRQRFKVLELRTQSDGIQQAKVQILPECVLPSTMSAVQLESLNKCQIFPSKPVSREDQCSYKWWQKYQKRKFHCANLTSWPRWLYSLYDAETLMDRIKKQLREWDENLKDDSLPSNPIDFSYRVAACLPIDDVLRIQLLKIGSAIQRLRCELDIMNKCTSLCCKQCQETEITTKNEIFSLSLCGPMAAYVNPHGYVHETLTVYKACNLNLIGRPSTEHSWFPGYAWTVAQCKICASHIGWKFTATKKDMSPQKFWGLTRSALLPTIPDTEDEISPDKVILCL
# Chain of CRBN/DDB1 (Q16531 whole entry partner, species assumed): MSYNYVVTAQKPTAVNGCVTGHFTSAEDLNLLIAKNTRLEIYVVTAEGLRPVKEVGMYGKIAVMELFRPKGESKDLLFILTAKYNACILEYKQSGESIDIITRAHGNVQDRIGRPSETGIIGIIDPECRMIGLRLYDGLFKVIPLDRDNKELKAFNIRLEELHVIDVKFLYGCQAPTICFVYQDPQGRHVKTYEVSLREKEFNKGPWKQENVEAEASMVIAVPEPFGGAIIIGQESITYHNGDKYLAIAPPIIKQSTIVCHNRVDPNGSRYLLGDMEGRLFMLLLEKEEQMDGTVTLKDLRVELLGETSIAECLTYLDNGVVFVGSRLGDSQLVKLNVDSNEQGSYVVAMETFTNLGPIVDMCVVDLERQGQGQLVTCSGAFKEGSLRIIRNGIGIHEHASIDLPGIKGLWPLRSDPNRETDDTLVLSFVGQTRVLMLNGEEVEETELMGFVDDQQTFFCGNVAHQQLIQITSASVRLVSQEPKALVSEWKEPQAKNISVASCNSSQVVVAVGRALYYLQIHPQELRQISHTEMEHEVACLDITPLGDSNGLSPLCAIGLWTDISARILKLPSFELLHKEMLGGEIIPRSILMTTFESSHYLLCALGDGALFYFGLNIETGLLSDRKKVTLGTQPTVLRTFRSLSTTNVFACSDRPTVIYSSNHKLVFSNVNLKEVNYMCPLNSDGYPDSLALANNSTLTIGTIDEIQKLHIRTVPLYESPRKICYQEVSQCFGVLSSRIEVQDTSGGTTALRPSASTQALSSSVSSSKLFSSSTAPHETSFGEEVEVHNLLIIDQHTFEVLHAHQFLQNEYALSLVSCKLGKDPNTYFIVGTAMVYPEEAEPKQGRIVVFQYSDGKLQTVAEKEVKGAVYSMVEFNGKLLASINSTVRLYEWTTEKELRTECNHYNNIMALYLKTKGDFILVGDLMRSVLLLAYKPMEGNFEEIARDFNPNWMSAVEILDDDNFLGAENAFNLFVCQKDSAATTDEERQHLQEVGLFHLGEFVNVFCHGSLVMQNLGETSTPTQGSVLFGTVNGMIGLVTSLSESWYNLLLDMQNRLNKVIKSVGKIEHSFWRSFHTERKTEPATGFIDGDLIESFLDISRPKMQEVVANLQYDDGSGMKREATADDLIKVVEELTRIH
Compound,IC50 (MV-4-11 cells) [µM],IC50 (Mino cells) [µM],IC50 (MM.1S cells) [µM],inhibition at 1 µM (CRBN/DDB1) [%],hydrolysis half-life ([1]; pH 7),hydrolysis half-life ([1]; pH 7.4) [h],hydrolysis half-life ([1]; pH 8) [h]
"CCn1c2c(OCc3ccc(CN4CCOCC4)cc3)cccc2c(=O)n1C1CCC(=O)NC1=O (stereo not drawn) [Compound D23, 3-(1-Ethyl-7-((4-(morpholinomethyl)benzyl)oxy)-3-oxo-1,3-dihydro-2H-indazol-2-yl)piperidine-2,6-dione]",> 20,> 10,> 10,< 50,,,
CCn1c2c(OCc3ccc(CN4CCN(c5ccc(C#N)cc5F)CC4)cc3)cccc2c(=O)n1C1CCC(=O)NC1=O (stereo not drawn) [Compound D25],1 to 20,> 10,1 to 10,< 50,,,
"CC(C)(C)NC(=O)c1ccc2c(=O)n(C3CCC(=O)NC3=O)[nH]c2c1 (stereo not drawn) [Compound D40, N-(tert-butyl)-2-(2,6-dioxopiperidin-3-yl)-3-oxo-2,3-dihydro-1H-indazole-6-carboxamide]",> 20,> 10,> 10,< 50,,,
"O=C1CC[C@H](n2[nH]c3cc(CNC(=O)C(F)(F)c4ccc(Cl)cc4)ccc3c2=O)C(=O)N1 [Compound D44, (S)-2-(4-chlorophenyl)-N-((2-(2,6-dioxopiperidin-3-yl)-3-oxo-2,3-dihydro-1H-indazol-6-yl)methyl)-2,2-difluoroacetamide]",1 to 20,> 10,> 10,< 50,,,
"O=C1CCC(n2[nH]c3cc(C(=O)NCc4ccccc4)ccc3c2=O)C(=O)N1 (stereo not drawn) [Compound D46, N-Benzyl-2-(2,6-dioxopiperidin-3-yl)-3-oxo-2,3-dihydro-1H-indazol-6-carboxamide]",> 20,> 10,> 10,< 50,,,
"CCc1ccc([C@H](C)NC(=O)c2ccc3c(=O)n(C4CCC(=O)NC4=O)[nH]c3c2)cc1 (stereo partly drawn) [Compound D47, 2-(2,6-Dioxopiperidin-3-yl)-N-((S)-1-(4-ethylphenyl)ethyl)-3-oxo-2,3-dihydro-1H-indazol-6-carboxamide]",0.2 to 1,< 0.2,0.2 to 1,< 50,,,
O=C1CCC(N2C(=O)c3ccccc3C2=O)C(=O)N1 (stereo not drawn) [thalidomide],,,,,about 11 hours,~5,~1.25
